Measurements reported in PubChem BioAssay (NCI).
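Five concentrations, 48 hours, 96-well plates. GI50 marks 50% less growth. The concentration for full growth arrest is given as TGI.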

Experiments:
Experiment in all cases: NCI tumour cell line growth inhibition, 48 h
[1] = test system: HOP-92 NSCLC
[2] = test system: SK-MEL-5 melanoma
[3] = test system: HCC-2998 colon
[4] = test system: CCRF-CEM leukemia
[5] = test system: SW-620 colon
[6] = test system: OVCAR-8 ovarian
[7] = test system: COLO 205 colon
[8] = test system: SNB-19 CNS
[9] = test system: SK-OV-3 ovarian
[10] = test system: SN12C renal

SMILES | GI50 [1] [µM] | TGI [1] [µM] | GI50 [2] [µM] | TGI [2] [µM] | GI50 [3] [µM] | TGI [3] [µM] | GI50 [4] [µM] | TGI [4] [µM] | GI50 [5] [µM] | TGI [5] [µM] | GI50 [6] [µM] | TGI [6] [µM] | GI50 [7] [µM] | TGI [7] [µM] | GI50 [8] [µM] | TGI [8] [µM] | GI50 [9] [µM] | TGI [9] [µM] | GI50 [10] [µM] | TGI [10] [µM]
Cc1nc2sc(C(=O)Nc3cccc4ccccc34)c(N)c2cc1C(O)c1ccccc1 (stereo not given) | 2.11 | 18.8 | 0.0993 | 0.717 | 0.193 | 2.89 | 0.0409 | > 100 | 0.0377 | 23.4 | 0.101 | 71.2 | 0.349 | 2.28 | 0.108 | > 66.7 | 0.0702 | 67.4 | 0.0971 | 9.49
Cc1ccc2c(-c3ccnc(Nc4ccccc4)n3)c(-c3ccc(F)cc3)nn2n1 | 3.33 | > 25 | 4.75 | 11.4 | 7.03 | 22.6 | 5.81 | > 25 | 8.37 | > 25 | 9.79 | > 25 | 11.1 | > 25 | 14.4 | > 25 | 1.39 | > 25 | 4.85 | > 25
C[C@]12CC[C@@H]3c4cc(-c5ccc(F)cc5)c(O)cc4CC[C@H]3[C@@H]1CC[C@@H]2O | 10.6 | 23.6 | 9.41 | 21.2 | 16.8 | 38.2 | 6.93 | 29.3 | 10.1 | 21.8 | 8.02 | 37.3 | 4.83 | 23.9 | 9.61 | 22.6 | 13.3 | 28.2 | 10 | 22.4
CC(=O)N1C/C(=C/c2ccc(Cl)cc2)C(=O)/C(=C/c2ccc(Cl)cc2)C1 | 1.52 | 4.06 | 1.49 | 2.9 | 0.632 | 1.45 | 0.319 | 3.03 | 0.297 | 0.981 | 0.463 | 2.17 | 0.756 | 2.01 | 1.14 | 2.49 | 1.61 | 3.39 | 0.72 | 2.24
COc1cc(-c2ccc(-c3ccc(C(=N)N)nc3)s2)cc(OC)c1OC | 1.91 | 8.37 | 1.67 | 3.08 | 2 | 3.9 | 2.49 | 7.41 | 2.09 | 5.24 | 2.3 | 5.23 | 1.6 | 3.26 | 4.73 | 16.3 | 13.1 | 26 | 2.05 | 4.71
O=C(CCc1nnc2s/c(=C\c3ccc(Cl)c(Cl)c3)c(=O)n12)Nc1ccc(Cl)c(Cl)c1 |  | > 100 |  | > 100 |  | > 100 |  | 60.2 |  | > 100 |  | 43.6 |  | > 100 |  | > 100 |  | > 100 |  | > 100
C#CCOCn1cnc2c(Sc3c([N+](=O)[O-])ncn3C)ncnc21 |  | > 100 |  | > 100 |  | > 100 |  | > 100 |  | > 100 |  | > 100 |  | > 100 |  | > 100 |  | > 100 |  | > 100
N#Cc1ccc2c(c1)C(=O)c1c-2n(CCCCl)c(=O)c2cc([N+](=O)[O-])ccc12 | 5.06 | 23.1 | 5.07 | 71.5 | 12 | > 100 | 0.589 | 10.7 | 0.801 | > 100 | 20.6 | > 100 | > 100 | > 100 | 3.39 | > 100 | 5.29 | 24.7 | 5.93 | > 100
CNC(=O)c1ccc(N2C(=S)N(c3ccc(C#N)c(C(F)(F)F)c3)C(=O)C2(C)C)cc1F | 16.5 | > 48.9 | 20.3 | 50 | > 40.7 | > 65.8 | 30 | > 100 | > 52.6 | > 100 | 50.2 | > 100 | 32 | > 57.7 | > 61.2 | > 100 | > 51 | > 93.1 | 38.6 | > 100
COc1ccc(-c2cc(-c3ccc(Cl)cc3)nc(SCCCC(=O)NO)n2)cc1 | 1.8 | 5.07 | 1.59 | 3.31 | 1.68 | 3.45 | 0.222 | > 100 | 0.553 | 3.29 | 0.427 | > 100 | 1.69 | 4.4 | 2.18 | > 27.1 | 1.67 | 5.68 | 0.654 | > 20.5
COc1ccc(-c2oc(=O)ccc2-c2cc(OC)c(OC)c(OC)c2)cc1O | 8.61 | > 80.4 | 0.514 | 12.7 | 1.8 | 10.5 | 2.07 | 18.9 | 0.612 | > 47.6 | 4.34 | > 100 | 6.78 | 36 | 4.76 | > 100 | 1.65 | > 42.6 | 6.4 | > 100
